Source: article PMC3026871 (Cancer chemotherapy and pharmacology, 2010)
Marks after values point to notes of the source that are not given here.

Tests used:
[1] = test system: patients with advanced solid tumors; experiment: Phase 1 safety: drug-related adverse events; type: in vivo
dogs = settings: the most sensitive species; cited from earlier work
human tumor xenografts = settings: cited from earlier work
[2] = ref Data on file, Millennium; cited from earlier work
[3] = Plasma pharmacokinetics in patients; settings: for Cmin, Mean (SD): 6 hours after the second dose
[4] = QID-7D 25 mg, Day 7, Dose 2, steady state, n=6
[5] = QID-7D 35 mg, Day 7, Dose 2, steady state, n=3
[6] = QID-7D 45 mg, Day 7, Dose 2, steady state, n=3
[7] = QID-7D 55 mg, Day 7, Dose 2, steady state, n=4

O=C(O)c1ccc(Nc2ncc3c(n2)-c2ccc(Cl)cc2C(c2c(F)cccc2F)=NC3)cc1 [MLN8054]
Any drug-related adverse event, Any Grade ([1]; human, in vivo): 55 (90) | Any drug-related adverse event, Grade 3 ([1]; human, in vivo): 13 (21) | Drug-related Abnormal coordination, Any Grade ([1]; human, in vivo): 5 (8) | Drug-related Abnormal coordination, Grade 3 ([1]; human, in vivo): 1 (2) | Drug-related Anorexia, Any Grade ([1]; human, in vivo): 8 (13) | Drug-related Anorexia, Grade 3 ([1]; human, in vivo): 0 (0) | Drug-related Asthenia, Any Grade ([1]; human, in vivo): 6 (10) | Drug-related Asthenia, Grade 3 ([1]; human, in vivo): 1 (2) | Drug-related Confusion, Any Grade ([1]; human, in vivo): 11 (18) | Drug-related Confusion, Grade 3 ([1]; human, in vivo): 4 (7) | Drug-related Dizziness, Any Grade ([1]; human, in vivo): 7 (11) | Drug-related Dizziness, Grade 3 ([1]; human, in vivo): 1 (2) | Drug-related Fatigue, Any Grade ([1]; human, in vivo): 15 (25) | Drug-related Fatigue, Grade 3 ([1]; human, in vivo): 1 (2) | Drug-related Hallucination, Any Grade ([1]; human, in vivo): 1 (2) | Drug-related Hallucination, Grade 3 ([1]; human, in vivo): 1 (2) | Drug-related Hyperbilirubinemia, Any Grade ([1]; human, in vivo): 3 (5) | Drug-related Hyperbilirubinemia, Grade 3 ([1]; human, in vivo): 1 (2) | Drug-related Hyperglycemia, Any Grade ([1]; human, in vivo): 5 (8) | Drug-related Hyperglycemia, Grade 3 ([1]; human, in vivo): 1 (2) | Drug-related Increased blood alkaline phosphatase, Any Grade ([1]; human, in vivo): 4 (7) | Drug-related Increased blood alkaline phosphatase, Grade 3 ([1]; human, in vivo): 1 (2) | Drug-related Muscular weakness, Any Grade ([1]; human, in vivo): 5 (8) | Drug-related Muscular weakness, Grade 3 ([1]; human, in vivo): 1 (2) | Drug-related Nausea, Any Grade ([1]; human, in vivo): 10 (16) | Drug-related Nausea, Grade 3 ([1]; human, in vivo): 0 (0) | Drug-related Peripheral motor neuropathy, Any Grade ([1]; human, in vivo): 1 (2) | Drug-related Peripheral motor neuropathy, Grade 3 ([1]; human, in vivo): 1 (2) | Drug-related Somnolence, Any Grade ([1]; human, in vivo): 47 (77) | Drug-related Somnolence, Grade 3 ([1]; human, in vivo): 11(18) | Drug-related Vomiting, Any Grade ([1]; human, in vivo): 6 (10) | Drug-related Vomiting, Grade 3 ([1]; human, in vivo): 0 (0) | drug-related grade 4 or 5 AE ([1]; human, in vivo): no patient had a drug-related grade 4 or 5 AE | grade ≥ 3 mucositis or myelosuppression ([1]; human, in vivo): No dose studied was associated with grade ≥ 3 mucositis or myelosuppression | patients who died within 21 days of the last dose ([1]; nine patients, none of the deaths considered drug-related): 15% | highest non-severely toxic dose (dogs): 20 mg/m^2/day | antitumor activity in xenograft models (human tumor xenografts): antitumor activity in human tumor xenografts including colon, prostate, and lung cancer models | plasma concentration whose maintenance is required for efficacy (human tumor xenografts; maintained for 8–12 hours per day, human tumor xenografts grown in mice): ~ 2000 nM | dose-limiting toxicities (DLTs) in preclinical toxicology studies [2]: myelosuppression and gastrointestinal toxicity | dose proportionality of AUC0-24 hr and Cmax ([3]; QD dosing): roughly dose-proportional | Peak-to-Trough Ratio (Cmax/Cmin) ([3]; QD dosing, all dose levels): approximately 5 | Geometric Mean Peak-to-Trough Ratio (Cmax/Cmin) ([3]; QD-7D 5 mg, Day 7, steady state, n=4): 4.99 | Geometric Mean Peak-to-Trough Ratio (Cmax/Cmin) ([3]; QD-7D 10 mg, Day 7, steady state, n=4): 5.10 | Geometric Mean Peak-to-Trough Ratio (Cmax/Cmin) ([3]; QD-7D 20 mg, Day 7, steady state, n=3): 5.09 | Geometric Mean Peak-to-Trough Ratio (Cmax/Cmin) ([3]; QD-7D 30 mg, Day 7, steady state, n=6): 4.72 | Peak-to-Trough Ratio (Cmax/Cmin) ([3]; QD-7D 40 mg, Day 7, steady state, individual data, n=1): 6.59 ^† | Geometric Mean Peak-to-Trough Ratio (Cmax/Cmin) [3, 4]: 1.58 | Cmin, Mean (SD) [3, 4]: 720 (359) nM | Geometric Mean Peak-to-Trough Ratio (Cmax/Cmin) [3, 5]: 1.32 | Cmin, Mean (SD) [3, 5]: 1464 (301) nM | Geometric Mean Peak-to-Trough Ratio (Cmax/Cmin) [3, 6]: 1.45 | Cmin, Mean (SD) [3, 6]: 1139 (803) nM | Geometric Mean Peak-to-Trough Ratio (Cmax/Cmin) [3, 7]: 1.44 | Cmin, Mean (SD) [3, 7]: 1802 (846) nM | Geometric Mean Peak-to-Trough Ratio (Cmax/Cmin) ([3]; QID/M-7D 55 mg, Day 7, Dose 2, steady state, n=3): 1.81 | Geometric Mean Peak-to-Trough Ratio (Cmax/Cmin) ([3]; QID/M-7D 60 mg, Day 7, Dose 2, steady state, n=6): 1.80 | Geometric Mean Peak-to-Trough Ratio (Cmax/Cmin) ([3]; QID/M-7D 70 mg, Day 7, Dose 2, steady state, n=3): 1.65 | Geometric Mean Peak-to-Trough Ratio (Cmax/Cmin) ([3]; QID/M-7D 80 mg, Day 7, Dose 2, steady state, n=3): 1.35 | Geometric Mean Peak-to-Trough Ratio (Cmax/Cmin) ([3]; QID/M-14D 60 mg, Day 14, Dose 2, steady state, n=3): 1.29 | Peak-to-Trough Ratio (Cmax/Cmin) ([3]; QID/M-21D 60 mg, Day 21, Dose 2, steady state, individual data, n=1): 1.59 ^† | MLN8054 concentrations between the second and third doses ([3]; QID/M-21D 60 mg, days 14 and 21, 1 patient): < 2000 nM | concentration at 7 day ([3]; human, in vivo, 60 mg): ~2000 nM | concentration at 14 day ([3]; human, in vivo, 60 mg): > 2000 nM | AUC(0-t) ([3]; human, plasma, oral, 5 mg, AUC0–24, Mean (SD), QD-7D 5 mg, Day 7, steady state, n=4): 6.16 µM·h | Cmax ([3]; human, plasma, oral, 5 mg, Cmax, Mean (SD), QD-7D 5 mg, Day 7, steady state, n=4): 521 nM | concentration at 24 h ([3]; human, plasma, oral, 5 mg, Cmin, Mean (SD), QD-7D 5 mg, Day 7, steady state, n=4, 24 hours after the daily dose): 162 nM | Tmax ([3]; human, plasma, oral, 5 mg, Tmax, Mean (SD), QD-7D 5 mg, Day 7, steady state, n=4): 1.7 h
